In patent publication US20050004118A1, “Prodrugs of non-steroidal anti-inflammatory and carboxylic acid containing compounds” (priority 2000, published 2005):
Like-named read-outs stand apart in the source and are kept apart here. Each block holds one molecule with its values, some of them ahead of it.

Legend:
[1] = half-life of prodrug ester in plasma (hydrolysis by plasma enzymes); conditions: in plasma at physiologic pH
[2] = stability against chemical hydrolysis in pH solutions; format: physicochemical
[3] = cited from earlier work
plasma enzymes = experiment: half-life of prodrug ester in plasma (hydrolysis by plasma enzymes); conditions: plasma

Structure (SMILES): O=C(Cc1ccccc1Nc1c(Cl)cccc1Cl)OCCOC(=O)N1CCOCC1 [2-[(2,6-Dichlorophenyl])amino]benzene-acetic acid morpholinocarbonyloxyethyl ester]
half-life in plasma [1]: 21 min
half life in a 1.0 pH solution ([2]; 1.0 pH solution): 8 hours
half life in a 7.4 pH solution ([2]; 7.4 pH solution): 47 hours

Structure (SMILES): O=C(Oc1ccccc1C(=O)O)c1ccccc1O [Salsalate, salsalate]
solubility at normal acidic gastric pH [3]: insoluble

half-life (plasma enzymes): 20 min
half-life ([2]; pH 1.0 solution, pH 1, 1.0 pH solution, read-out: half life in a 1.0 pH solution (converted)): 456 min
half-life ([2]; pH 7.4 solution, pH 7.4, 7.4 pH solution, read-out: half life in a 7.4 pH solution (converted)): 3960 min
Structure (SMILES): Cc1cccc(Nc2ccccc2C(=O)OCCOC(=O)N2CCOCC2)c1C [2-[(2,3-Dimethylphenyl)amino]-benzoic acid morpholinocarbonyloxyethyl ester]
